Molecules are shown by their SMILES. pEC50: −log10 of the molar value.

Type in all cases: cell-based
For test [1], the target named is T1, SST2 (Homo sapiens, UniProt P30874).
T1 construct: host or cells: PathHunter CHO-K1 SST2 cells
Kind of test: PathHunter CHO-K1 SST2 Internalization Assay. The conditions noted are these: PathHunter CHO-K1 SST2 cells; 90 min at 37 C; luminescence; read-out: Internalization EC50. An outline of the steps: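 CHO-K1 cells expressing human SST2, 2500 cells/well, grown 48 h, then exposed 90 min at 37 C to 11-point 1:3 NDC dilutions (final top 10 uM). Beta-Glo luminescence after 60 min at room temperature; four-parameter IC50, duplicate mean, background-corrected.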

In test [2] the target is T2, human somatostatin receptor subtype 2 (Homo sapiens, UniProt P30874).
T2 construct: expressed in transfected cells
Kind of test: Functional assay for SSTR2 agonists (HTRF cAMP). The conditions noted are these: CHO-K1 cells stably expressing human SST2; NKH477-stimulated cAMP; 20 min at 37 C; read-out: hSST2 cAMP Avg EC50. In outline:
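CHO-K1 cells stably expressing human SSTR2 treated with compound (typically 0-10,000 nM final) for 20 min at 37 °C. Lysate cAMP measured by HTRF (665/620 nm ratio), converted via standard curve; EC50 from cAMP vs concentration.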
(In TR-FRET formats the signal depends on donor and acceptor labels being close together.)

The subject of test [3] is NCI-H524 human small cell lung cancer cells. Kind of test: H524 assay: inhibition of cell proliferation (CellTiter Glo). The following applies: 2 h treatment, washout, additional 70 h incubation. In outline:
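NCI-H524 cells were exposed for 2 h to NDC in an 11-point two-fold series starting at 1 uM. The drug was then washed out and cells grew a further 70 h. CellTiter Glo luminescence gave % inhibition versus untreated control, and IC50 came from a four-parameter nonlinear regression.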

T1 sequence (P30874 whole entry): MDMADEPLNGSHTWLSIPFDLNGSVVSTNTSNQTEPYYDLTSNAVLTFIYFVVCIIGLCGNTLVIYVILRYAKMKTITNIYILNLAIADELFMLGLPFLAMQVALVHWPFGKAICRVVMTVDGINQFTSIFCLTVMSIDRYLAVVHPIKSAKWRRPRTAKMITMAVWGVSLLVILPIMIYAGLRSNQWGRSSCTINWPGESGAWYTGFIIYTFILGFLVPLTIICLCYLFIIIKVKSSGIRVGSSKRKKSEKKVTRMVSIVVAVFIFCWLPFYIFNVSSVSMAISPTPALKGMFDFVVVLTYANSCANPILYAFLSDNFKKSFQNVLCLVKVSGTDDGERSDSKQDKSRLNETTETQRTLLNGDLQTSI
T2 sequence (P30874 whole entry): as above

As for `CC[C@H](C)[C@@H]([C@@H](CC(=O)N1CCC[C@H]1[C@H](OC)[C@@H](C)C(=O)N[C@H](C)[C@@H](O)c1ccccc1)OC)N(C)C(=O)[C@@H](NC(=O)[C@H](C(C)C)N(C)C(=O)OCc1ccc(NC(=O)[C@H](CCCNC(N)=O)NC(=O)[C@@H](NC(=O)C[C@@H](N)C(=O)NCCOCCOCCOCCOCCC(=O)NCCNc2ncc(-c3cc(C)cc(F)c3)c(N3CCC(NC)CC3)c2-c2nc3ccc(Cl)cc3[nH]2)C(C)C)c(O[C@@H]2O[C@H](C(=O)O)[C@@H](O)[C@H](O)[C@H]2O)c1)C(C)C` [Compound 122], the pEC50 in test [1] was 8.06; in test [2] it was 9.72; in test [3], 7.57.

Turning to `CC[C@H](C)[C@@H]([C@@H](CC(=O)N1CCC[C@H]1[C@H](OC)[C@@H](C)C(=O)N[C@H](C)[C@@H](O)c1ccccc1)OC)N(C)C(=O)[C@@H](NC(=O)[C@H](C(C)C)N(C)C(=O)OCc1ccc(NC(=O)[C@H](CCCNC(N)=O)NC(=O)[C@@H](NC(=O)[C@H](Cc2c[nH]c3ccccc23)NC(=O)CCOCCC(=O)NCCNc2ncc(-c3cc(C)cc(F)c3)c(N3CCC(N)CC3)c2-c2nc3ccc(Cl)cc3[nH]2)C(C)C)cc1C(=O)NCCN)C(C)C` [Compound 85], the figures for the pEC50 in test [1], in test [2] and in test [3] were 8.44, 9.14 and 7.14, respectively.

In the case of `CC[C@H](C)[C@@H]([C@@H](CC(=O)N1CCC[C@H]1[C@H](OC)[C@@H](C)C(=O)N[C@H](C)[C@@H](O)c1ccccc1)OC)N(C)C(=O)[C@@H](NC(=O)[C@H](C(C)C)N(C)C(=O)OCc1ccc(NC(=O)[C@H](CCCNC(N)=O)NC(=O)[C@@H](NC(=O)c2cc(NCCC(=O)NCCNc3ncc(-c4cc(C)cc(F)c4)c(N4CCC(N)CC4)c3-c3nc4ccc(Cl)cc4[nH]3)cc(C(=O)NCC(=O)O)c2)C(C)C)cc1)C(C)C` [Compound 157], the pEC50 in test [1] is 7.70; in test [2], 9.35; in test [3] it was 7.02.

For the molecule `CC[C@H](C)[C@@H]([C@@H](CC(=O)N1CCC[C@H]1[C@H](OC)[C@@H](C)C(=O)N[C@H](C)[C@@H](O)c1ccccc1)OC)N(C)C(=O)[C@@H](NC(=O)C(C(C)C)N(C)C(=O)OCc1ccc(NC(=O)[C@H](CCCNC(N)=O)NC(=O)[C@@H](NC(=O)CCOCCC(=O)NCCNc2ncc(-c3cc(C)cc(F)c3)c(N3CCC(N)CC3)c2-c2nc3ccc(Cl)cc3[nH]2)C(C)C)c(O[C@@H]2O[C@H](C(=O)N3CCN(CC(=O)O)CC3)[C@@H](O)[C@H](O)[C@H]2O)c1)C(C)C` (stereo partly drawn) [Compound 227], the pEC50 in test [1] was 8.51; in test [2] it was 10.11; in test [3] it was 7.96.

As to `CC[C@H](C)[C@@H]([C@@H](CC(=O)N1CCC[C@H]1[C@H](OC)[C@@H](C)C(=O)N[C@H](C)[C@@H](O)c1ccccc1)OC)N(C)C(=O)[C@@H](NC(=O)[C@H](C(C)C)N(C)C(=O)OCc1ccc(NC(=O)[C@H](CCCNC(N)=O)NC(=O)[C@@H](NC(=O)c2cc(NCCOCCOCCOCCC(=O)NCCNc3ncc(-c4cc(C)cc(F)c4)c(N4CCC(N)CC4)c3-c3nc4ccc(Cl)cc4[nH]3)cc(C(=O)O)c2)C(C)C)cc1)C(C)C` [Compound 177], the pEC50 in test [1] was 7.96; in test [2] it was 9.64; in test [3] it was 5.64.

In the case of `CC[C@H](C)[C@@H]([C@@H](CC(=O)N1CCC[C@H]1[C@H](OC)[C@@H](C)C(=O)N[C@H](C)[C@@H](O)c1ccccc1)OC)N(C)C(=O)[C@@H](NC(=O)[C@H](C(C)C)N(C)C(=O)OCc1ccc(NC(=O)[C@H](C)NC(=O)[C@@H](NC(=O)CCOCCC(=O)N(C)CC(=O)NCCNc2ncc(-c3cc(C)cc(F)c3)c(N3CCC(N)CC3)c2-c2nc3ccc(Cl)cc3[nH]2)C(C)C)c(O[C@@H]2O[C@H](C(=O)NCS(=O)(=O)O)[C@@H](O)[C@H](O)[C@H]2O)c1)C(C)C` [Compound 50], the negative-log EC50 (pEC50) in test [1] was 8.17; in test [2] it was 9.89; in test [3] it was 7.44.

Turning to `CC[C@H](C)[C@@H]([C@@H](CC(=O)N1CCC[C@H]1[C@H](OC)[C@@H](C)C(=O)N[C@H](C)[C@@H](O)c1ccccc1)OC)N(C)C(=O)[C@@H](NC(=O)[C@H](C(C)C)N(C)C(=O)OCc1ccc(NC(=O)[C@H](C)NC(=O)[C@@H](NC(=O)CCOCCC(=O)NCCNc2ncc(-c3cc(C)cc(F)c3)c(N3CCC(N)CC3)c2-c2nc3cc(F)cc(OC)c3[nH]2)C(C)C)c(O[C@@H]2O[C@H](C(=O)O)[C@@H](O)[C@H](O)[C@H]2O)c1)C(C)C` [Compound 140], the pEC50 in test [1] was 8.54; in test [2], 9.82; in test [3], 8.18.

`CC[C@H](C)[C@@H]([C@@H](CC(=O)N1CCC[C@H]1[C@H](OC)[C@@H](C)C(=O)N[C@H](C)[C@@H](O)c1ccccc1)OC)N(C)C(=O)[C@@H](NC(=O)[C@H](C(C)C)N(C)C(=O)OCc1ccc(NC(=O)[C@H](CCCNC(N)=O)NC(=O)[C@@H](NC(=O)CN(C)C(=O)CCOCCC(=O)NCCNc2ncc(-c3cc(C)cc(F)c3)c(N3CCC(N)CC3)c2-c2nc3ccc(Cl)cc3[nH]2)C(C)C)c(OCC(N)=O)c1)C(C)C` [Compound 20]: the results for the pEC50 in test [1], in test [2] and in test [3] were 8.15, 10.03 and 7.54, respectively.

As for `CC[C@H](C)[C@@H]([C@@H](CC(=O)N1CCC[C@H]1[C@H](OC)[C@@H](C)C(=O)N[C@H](C)[C@@H](O)c1ccccc1)OC)N(C)C(=O)[C@@H](NC(=O)[C@H](C(C)C)N(C)C(=O)OCc1ccc(NC(=O)[C@H](CCCNC(N)=O)NC(=O)[C@@H](NC(=O)c2cc(NCCOCCC(=O)NCCNc3ncc(-c4cc(C)cc(F)c4)c(N4CCC(N)CC4)c3-c3nc4ccc(Cl)cc4[nH]3)cc(C(=O)NCCN(CC(=O)O)CC(=O)O)c2)C(C)C)cc1C(=O)NCCN)C(C)C` [Compound 58], the pEC50 in test [1] is 7.85; in test [2] it was 9.59; in test [3], 6.04.

Consider `CC[C@H](C)[C@@H]([C@@H](CC(=O)N1CCC[C@H]1[C@H](OC)[C@@H](C)C(=O)N[C@H](C)[C@@H](O)c1ccccc1)OC)N(C)C(=O)[C@@H](NC(=O)[C@H](C(C)C)N(C)C(=O)OCc1ccc(NC(=O)[C@H](CCCNC(N)=O)NC(=O)[C@@H](NC(=O)C2(C(=O)NCCOCCC(=O)NCCNc3ncc(-c4cc(C)cc(F)c4)c(N4CCC(N)CC4)c3-c3nc4ccc(Cl)cc4[nH]3)CCC2)C(C)C)cc1C(=O)NCCN)C(C)C` [Compound 81], for which the results for the pEC50 in test [1], in test [2] and in test [3] were 8.00, 10.03 and 8.70, respectively.

As for `CC[C@H](C)[C@@H]([C@@H](CC(=O)N1CCC[C@H]1[C@H](OC)[C@@H](C)C(=O)N[C@H](C)[C@@H](O)c1ccccc1)OC)N(C)C(=O)[C@@H](NC(=O)[C@H](C(C)C)N(C)C(=O)OCc1ccc(NC(=O)[C@H](C)NC(=O)[C@@H](NC(=O)CCOCCC(=O)NCCNc2ncc(-c3cc(C)cc(F)c3)c(N3CC[C@H]4NCCO[C@@H]4C3)c2-c2nc3ccc(Cl)cc3[nH]2)C(C)C)c(O[C@@H]2O[C@H](C(=O)O)[C@@H](O)[C@H](O)[C@H]2O)c1)C(C)C` [Compound 113], the pEC50 is 5.89 in test [1], 6.96 in test [2] and 5.70 in test [3].

For the molecule `CC[C@H](C)[C@@H]([C@@H](CC(=O)N1CCC[C@H]1[C@H](OC)[C@@H](C)C(=O)N[C@H](C)[C@@H](O)c1ccccc1)OC)N(C)C(=O)[C@@H](NC(=O)[C@H](C(C)C)N(C)C(=O)OCc1ccc(NC(=O)[C@H](CCCNC(N)=O)NC(=O)[C@@H](NC(=O)CCOCCC(=O)NCCNc2ncc(-c3cc(C)cc(F)c3)c(N3CCC(N)CC3)c2-c2nc3ccc(Cl)cc3[nH]2)C(C)C)c(O[C@@H]2O[C@H](C(=O)N3CCNCC3)[C@@H](O)[C@H](O)[C@H]2O)c1)C(C)C` [Compound 222], the pEC50 in test [1] is 8.37; in test [2], 9.96; in test [3], 8.72.

On to `CC[C@H](C)[C@@H]([C@@H](CC(=O)N1CCC[C@H]1[C@H](OC)[C@@H](C)C(=O)N[C@H](C)[C@@H](O)c1ccccc1)OC)N(C)C(=O)[C@@H](NC(=O)[C@H](C(C)C)N(C)C(=O)OCc1ccc(NC(=O)[C@H](CCCNC(N)=O)NC(=O)[C@@H](NC(=O)C[C@@H](N)C(=O)NCCOCCC(=O)NCCNc2ncc(-c3cc(C)cc(F)c3)c(N3CCC(N)CC3)c2-c2nc3ccc(Cl)cc3[nH]2)C(C)C)c(OCC(=O)O)c1)C(C)C` [Compound 22], for which the pEC50 in test [1] was 7.77; in test [2], 9.77; in test [3], 7.66.

As to `CC[C@H](C)[C@@H]([C@@H](CC(=O)N1CCC[C@H]1[C@H](OC)[C@@H](C)C(=O)N[C@H](C)[C@@H](O)c1ccccc1)OC)N(C)C(=O)[C@@H](NC(=O)[C@H](C(C)C)N(C)C(=O)OCc1ccc(NC(=O)[C@H](CCCNC(N)=O)NC(=O)[C@@H](NC(=O)C[C@@H](N)C(=O)NCCOCCNC(=O)c2cc(NCCOCCC(=O)NCCNc3ncc(-c4cc(C)cc(F)c4)c(N4CCC(N)CC4)c3-c3nc4cc(F)cc(OC)c4[nH]3)cc(C(=O)NCC(=O)O)c2)C(C)C)cc1)C(C)C` [Compound 164], the pEC50 is 8.39 in test [1], 9.46 in test [2] and 7.57 in test [3].

In the case of `CC[C@H](C)[C@@H]([C@@H](CC(=O)N1CCC[C@H]1[C@H](OC)[C@@H](C)C(=O)N[C@H](C)[C@@H](O)c1ccccc1)OC)N(C)C(=O)[C@@H](NC(=O)[C@H](C(C)C)N(C)C(=O)OCc1ccc(NC(=O)[C@H](CCCNC(N)=O)NC(=O)[C@@H](NC(=O)CCOCCC(=O)NCCNc2ncc(-c3cc(C)cc(F)c3)c(N3CCC(N)CC3)c2-c2nc3ccc(Cl)cc3[nH]2)C(C)C)c(O[C@@H]2O[C@H](C(=O)NCCC(=O)N[C@@H](CCCCNC(=O)CCCCc3ccc(I)cc3)C(=O)O)[C@@H](O)[C@H](O)[C@H]2O)c1)C(C)C` [Compound 55], the negative-log EC50 (pEC50) is 8.70 in test [1], 9.60 in test [2] and 7.96 in test [3].

The pEC50 is the EC50 on a negative log10 scale, so that one unit is a factor of ten.

(Values after patent publication US20260007758A1, “SO[…]-2 RECEPTOR (SST2R) NON-PEPTIDE DRUG CONJUGATES AND USES THEREOF” (Crinetics Pharmaceuticals, Inc., priority 2024, published 2026).)
